Data taken from article PMC7827406, “Structure–Activity Relationship (SAR) Study of Spautin-1 to Entail the Discovery of Novel NEK4 Inhibitors” (International Journal of Molecular Sciences, 2021).
Like-named read-outs stand apart in the source and are kept apart here.

Tests used:
Assay in all cases: biochemical
Design in all cases: Eurofins KinaseProfiler full panel at Km ATP, residual kinase activity (%) relative to DMSO
[1] = target: T1, A-Raf(h) (Homo sapiens, UniProt P10398)
T1 construct: gene ARAF
T1 sequence (P10398 1-606): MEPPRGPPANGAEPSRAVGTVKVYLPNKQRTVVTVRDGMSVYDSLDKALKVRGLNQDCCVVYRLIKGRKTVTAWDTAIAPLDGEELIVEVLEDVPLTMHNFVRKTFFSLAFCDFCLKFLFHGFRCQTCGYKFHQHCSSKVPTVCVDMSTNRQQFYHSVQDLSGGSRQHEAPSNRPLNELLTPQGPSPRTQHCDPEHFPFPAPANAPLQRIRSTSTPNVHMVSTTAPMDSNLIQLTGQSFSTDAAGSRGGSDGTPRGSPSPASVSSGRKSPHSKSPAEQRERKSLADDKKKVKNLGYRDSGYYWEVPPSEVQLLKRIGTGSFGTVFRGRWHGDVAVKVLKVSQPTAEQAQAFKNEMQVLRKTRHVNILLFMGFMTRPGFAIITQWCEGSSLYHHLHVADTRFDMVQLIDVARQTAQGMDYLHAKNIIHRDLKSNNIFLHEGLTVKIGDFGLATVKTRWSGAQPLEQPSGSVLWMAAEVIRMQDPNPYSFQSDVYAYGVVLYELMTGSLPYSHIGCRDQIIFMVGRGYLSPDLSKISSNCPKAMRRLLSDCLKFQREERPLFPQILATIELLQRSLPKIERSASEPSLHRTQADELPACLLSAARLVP
Outline: (§1)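 Radiometric kinase activity assays were run with ATP at Km and compounds at 10 µM, and remaining activity (%) was reported. A separate competitive binding screen measured DNA-tagged kinase displaced from immobilized active-site ligands by qPCR, giving percent kinase still bound at 10 µM compound in DMSO.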

[2] = target: T2, Arg(m) (Mus musculus, UniProt Q4JIM5)
T2 construct: gene Abl2
Outline: as §1

[3] = target: T3, CaMKIIβ(h) (Homo sapiens, UniProt Q13554)
T3 construct: gene CAMK2B
Outline: as §1

[4] = target: EGFR(L861Q)(h) (Homo sapiens, UniProt P00533, L861Q)
Outline: as §1

[5] = target: Flt1(h) (Homo sapiens, UniProt P17948)
Outline: as §1

[6] = target: GRK6(h) (Homo sapiens, UniProt P43250)
Outline: as §1

[7] = target: T4, JNK1α1(h) (Homo sapiens, UniProt P45983)
T4 construct: gene MAPK8; isoform alpha1
Outline: as §1

[8] = target: T5, MEK2(h) (Homo sapiens, UniProt P36507)
T5 construct: gene MAP2K2
Outline: as §1

[9] = target: T6, PI3 Kinase (p110a(H1047R)/p85a)(h) (Homo sapiens, UniProt P42336, H1047R)
T6 construct: gene PIK3CA
Outline: as §1

[10] = target: T7, PKCα(h) (Homo sapiens, UniProt P17252)
T7 construct: gene PRKCA
Outline: as §1

[11] = target: T8, PKCβI(h) (Homo sapiens, UniProt P05771)
T8 construct: gene PRKCB; isoform beta I
Outline: as §1

[12] = target: T9, Rsk1(r) (Rattus norvegicus, UniProt Q63531)
T9 construct: gene Rps6ka1
Outline: as §1

[13] = target: T10, cKit(V654A)(h) (Homo sapiens, UniProt P10721, V654A)
T10 construct: gene KIT
Outline: as §1

[14] = read-out: Residual activity (%) Spautin-1 5aa
[15] = read-out: Residual activity (%) 5as
[16] = read-out: Residual activity (%) 5at
[17] = read-out: Residual activity (%) 5ay

T3 sequence (Q13554 whole entry): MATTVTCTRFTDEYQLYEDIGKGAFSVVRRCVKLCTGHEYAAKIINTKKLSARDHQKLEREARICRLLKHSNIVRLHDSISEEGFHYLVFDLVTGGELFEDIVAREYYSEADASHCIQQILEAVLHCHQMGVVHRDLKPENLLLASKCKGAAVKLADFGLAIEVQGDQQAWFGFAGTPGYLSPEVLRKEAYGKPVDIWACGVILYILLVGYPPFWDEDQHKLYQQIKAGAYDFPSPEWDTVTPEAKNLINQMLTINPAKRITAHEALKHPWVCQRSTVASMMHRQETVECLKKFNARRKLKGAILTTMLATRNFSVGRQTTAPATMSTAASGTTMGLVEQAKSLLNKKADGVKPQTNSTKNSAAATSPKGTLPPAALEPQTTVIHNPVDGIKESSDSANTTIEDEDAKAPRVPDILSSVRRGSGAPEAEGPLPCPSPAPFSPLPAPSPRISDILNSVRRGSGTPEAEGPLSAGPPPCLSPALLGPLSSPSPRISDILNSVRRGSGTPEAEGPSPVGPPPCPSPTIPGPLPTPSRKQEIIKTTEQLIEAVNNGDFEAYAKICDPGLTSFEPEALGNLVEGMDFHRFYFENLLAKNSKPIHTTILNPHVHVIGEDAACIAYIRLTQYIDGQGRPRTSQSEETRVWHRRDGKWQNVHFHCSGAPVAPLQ
Flt1(h), sequence (P17948 whole entry): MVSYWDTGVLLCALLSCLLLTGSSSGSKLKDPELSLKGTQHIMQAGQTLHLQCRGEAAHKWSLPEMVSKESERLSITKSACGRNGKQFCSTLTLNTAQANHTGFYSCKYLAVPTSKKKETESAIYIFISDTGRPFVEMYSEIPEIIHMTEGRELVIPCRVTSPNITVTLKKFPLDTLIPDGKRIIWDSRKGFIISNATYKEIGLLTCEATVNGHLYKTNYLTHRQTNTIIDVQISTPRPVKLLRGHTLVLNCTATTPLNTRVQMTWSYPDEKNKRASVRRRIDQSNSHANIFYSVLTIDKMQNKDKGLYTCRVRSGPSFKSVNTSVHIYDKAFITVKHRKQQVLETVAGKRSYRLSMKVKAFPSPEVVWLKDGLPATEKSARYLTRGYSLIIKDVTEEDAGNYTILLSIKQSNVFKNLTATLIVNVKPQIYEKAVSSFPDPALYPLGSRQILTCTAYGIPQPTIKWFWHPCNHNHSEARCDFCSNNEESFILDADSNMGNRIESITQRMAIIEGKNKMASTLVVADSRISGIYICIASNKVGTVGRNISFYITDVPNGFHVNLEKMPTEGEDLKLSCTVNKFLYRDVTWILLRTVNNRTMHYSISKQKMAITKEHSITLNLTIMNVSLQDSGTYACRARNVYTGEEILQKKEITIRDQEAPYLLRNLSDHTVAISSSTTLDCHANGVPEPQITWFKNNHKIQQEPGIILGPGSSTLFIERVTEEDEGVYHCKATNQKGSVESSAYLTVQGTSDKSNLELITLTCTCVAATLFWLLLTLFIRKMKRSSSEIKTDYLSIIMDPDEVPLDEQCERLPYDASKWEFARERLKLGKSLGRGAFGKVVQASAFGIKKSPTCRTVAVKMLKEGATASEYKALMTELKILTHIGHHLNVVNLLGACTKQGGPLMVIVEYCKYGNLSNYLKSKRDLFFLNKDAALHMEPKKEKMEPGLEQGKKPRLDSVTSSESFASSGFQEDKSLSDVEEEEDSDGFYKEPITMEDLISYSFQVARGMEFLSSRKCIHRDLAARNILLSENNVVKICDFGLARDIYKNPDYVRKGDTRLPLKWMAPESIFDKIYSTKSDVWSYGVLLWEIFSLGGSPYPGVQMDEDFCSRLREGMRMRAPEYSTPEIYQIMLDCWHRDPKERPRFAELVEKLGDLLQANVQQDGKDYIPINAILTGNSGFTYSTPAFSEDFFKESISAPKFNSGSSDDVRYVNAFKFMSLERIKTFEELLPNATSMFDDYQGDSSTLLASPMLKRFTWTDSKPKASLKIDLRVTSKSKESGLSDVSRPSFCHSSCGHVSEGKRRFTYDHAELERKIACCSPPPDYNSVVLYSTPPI
GRK6(h), sequence (P43250 whole entry): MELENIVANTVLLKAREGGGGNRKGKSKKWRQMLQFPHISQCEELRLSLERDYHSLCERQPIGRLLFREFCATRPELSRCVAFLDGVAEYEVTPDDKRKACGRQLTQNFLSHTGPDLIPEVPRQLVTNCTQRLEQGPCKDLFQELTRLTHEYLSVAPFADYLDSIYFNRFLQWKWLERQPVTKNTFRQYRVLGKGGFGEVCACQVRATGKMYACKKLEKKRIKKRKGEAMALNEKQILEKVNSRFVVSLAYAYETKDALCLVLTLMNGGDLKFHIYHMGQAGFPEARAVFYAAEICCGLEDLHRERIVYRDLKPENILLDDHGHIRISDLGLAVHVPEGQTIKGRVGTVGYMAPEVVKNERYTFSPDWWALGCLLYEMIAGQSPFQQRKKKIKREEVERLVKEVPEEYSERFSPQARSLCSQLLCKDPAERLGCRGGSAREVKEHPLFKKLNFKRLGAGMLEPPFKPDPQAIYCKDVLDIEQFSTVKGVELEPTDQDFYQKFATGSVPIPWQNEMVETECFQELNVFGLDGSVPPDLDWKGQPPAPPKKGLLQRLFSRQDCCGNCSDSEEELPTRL
T2 sequence (Q4JIM5 whole entry): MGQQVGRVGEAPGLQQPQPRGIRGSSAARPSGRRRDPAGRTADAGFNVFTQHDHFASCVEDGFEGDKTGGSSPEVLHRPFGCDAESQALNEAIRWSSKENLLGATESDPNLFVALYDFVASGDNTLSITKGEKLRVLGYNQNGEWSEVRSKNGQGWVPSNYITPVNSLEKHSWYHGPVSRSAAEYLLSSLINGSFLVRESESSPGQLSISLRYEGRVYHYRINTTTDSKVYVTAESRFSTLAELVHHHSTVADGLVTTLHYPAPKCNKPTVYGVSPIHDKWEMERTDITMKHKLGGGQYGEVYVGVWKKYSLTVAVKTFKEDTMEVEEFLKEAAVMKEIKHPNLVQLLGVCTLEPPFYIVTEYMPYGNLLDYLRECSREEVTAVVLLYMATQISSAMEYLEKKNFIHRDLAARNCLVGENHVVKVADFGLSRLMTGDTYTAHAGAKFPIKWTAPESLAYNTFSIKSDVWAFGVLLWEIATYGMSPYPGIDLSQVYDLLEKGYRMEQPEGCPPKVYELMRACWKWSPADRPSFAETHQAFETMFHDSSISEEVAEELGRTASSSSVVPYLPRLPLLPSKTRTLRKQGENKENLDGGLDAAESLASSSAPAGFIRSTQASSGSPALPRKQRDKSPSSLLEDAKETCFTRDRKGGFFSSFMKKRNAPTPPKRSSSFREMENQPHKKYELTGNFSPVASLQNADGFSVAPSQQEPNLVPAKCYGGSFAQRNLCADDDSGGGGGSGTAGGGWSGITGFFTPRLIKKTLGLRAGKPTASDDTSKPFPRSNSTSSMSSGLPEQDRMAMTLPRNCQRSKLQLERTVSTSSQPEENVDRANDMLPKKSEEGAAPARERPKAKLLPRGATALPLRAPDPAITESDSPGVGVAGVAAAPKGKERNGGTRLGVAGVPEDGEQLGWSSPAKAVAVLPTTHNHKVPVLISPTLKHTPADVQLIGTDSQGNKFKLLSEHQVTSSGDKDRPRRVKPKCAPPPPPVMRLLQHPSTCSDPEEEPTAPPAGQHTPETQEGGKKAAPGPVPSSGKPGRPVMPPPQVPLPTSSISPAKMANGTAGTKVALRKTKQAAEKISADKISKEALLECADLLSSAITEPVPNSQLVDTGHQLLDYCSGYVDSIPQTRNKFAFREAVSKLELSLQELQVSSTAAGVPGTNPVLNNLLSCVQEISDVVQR
T4 sequence (P45983 whole entry, canonical isoform): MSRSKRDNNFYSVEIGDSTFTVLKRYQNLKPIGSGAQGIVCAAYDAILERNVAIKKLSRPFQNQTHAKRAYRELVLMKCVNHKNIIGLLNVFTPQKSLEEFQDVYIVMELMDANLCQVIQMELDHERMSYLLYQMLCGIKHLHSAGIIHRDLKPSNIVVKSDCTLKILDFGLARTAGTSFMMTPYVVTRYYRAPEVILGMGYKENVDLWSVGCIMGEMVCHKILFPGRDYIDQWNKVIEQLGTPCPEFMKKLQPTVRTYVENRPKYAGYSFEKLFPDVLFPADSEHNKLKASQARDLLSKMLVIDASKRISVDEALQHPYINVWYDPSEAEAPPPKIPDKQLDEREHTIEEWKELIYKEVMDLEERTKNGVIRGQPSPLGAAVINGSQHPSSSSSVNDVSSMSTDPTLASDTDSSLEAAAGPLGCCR

`Fc1ccc(CNc2ncnc3ccc(F)cc23)cc1` [5aa, 6-Fluoro-N-(4-fluorobenzyl)-4-Quinazolinamine] gave a remaining activity at 10 µM [1, 14] of 103%, a remaining activity at 10 µM [2, 14] of 91% and a remaining activity at 10 µM [3, 14] of 81%. It also gave a remaining activity at 10 µM [4, 14] of 36%, a remaining activity at 10 µM [5, 14] of 101% and a remaining activity at 10 µM [6, 14] of 100%. It also gave a remaining activity at 10 µM [7, 14] of 98%, a remaining activity at 10 µM [8, 14] of 92% and a remaining activity at 10 µM [9, 14] of 99%. It also gave a remaining activity at 10 µM [10, 14] of 89%, a remaining activity at 10 µM [11, 14] of 95% and a remaining activity at 10 µM [12, 14] of 117%. For the same compound, the remaining activity at 10 µM [13, 14] was 112%.

Work on `Fc1ccc(CCNc2ncnc3ccc(F)cc23)cc1` [5as, 6-Fluoro-N-[2-(4-Fluorophenyl)Ethyl]-4-Quinazolinamine] yielded a remaining activity at 10 µM [1, 15] of 106%, a remaining activity at 10 µM [2, 15] of 105% and a remaining activity at 10 µM [3, 15] of 91%. The remaining activity at 10 µM [4, 15] was 51%, the remaining activity at 10 µM [5, 15] was 86% and the remaining activity at 10 µM [6, 15] was 104%. For the same compound, the remaining activity at 10 µM [7, 15] was 83%, the remaining activity at 10 µM [8, 15] was 96% and the remaining activity at 10 µM [9, 15] was 97%. It also gave a remaining activity at 10 µM [10, 15] of 94%, a remaining activity at 10 µM [11, 15] of 100% and a remaining activity at 10 µM [12, 15] of 130%. The remaining activity at 10 µM [13, 15] was 85%.

With `Fc1ccc2ncnc(NCCc3ccc(Cl)cc3)c2c1` [5at, N-[2-(4-Chlorophenyl)Ethyl]-6-Fluoro-4-Quinazolinamine] the remaining activity at 10 µM [1, 16] was 108%, the remaining activity at 10 µM [2, 16] was 98% and the remaining activity at 10 µM [3, 16] was 91%. The remaining activity at 10 µM [4, 16] was 73%, the remaining activity at 10 µM [5, 16] was 80% and the remaining activity at 10 µM [6, 16] was 99%. The remaining activity at 10 µM [7, 16] was 98%, the remaining activity at 10 µM [8, 16] was 99% and the remaining activity at 10 µM [9, 16] was 94%. It also gave a remaining activity at 10 µM [10, 16] of 79%, a remaining activity at 10 µM [11, 16] of 93% and a remaining activity at 10 µM [12, 16] of 113%. For the same compound, the remaining activity at 10 µM [13, 16] was 85%.

`COc1ccc2ncnc(Nc3cccc(F)c3)c2c1` [5ay, N-(3-Fluorophenyl)-6-Methoxy-4-Quinazolinamine] gave a remaining activity at 10 µM [1, 17] of 100%, a remaining activity at 10 µM [2, 17] of 83% and a remaining activity at 10 µM [3, 17] of 72%. For the same compound, the remaining activity at 10 µM [5, 17] was 87%, the remaining activity at 10 µM [6, 17] was 110% and the remaining activity at 10 µM [7, 17] was 94%. For the same compound, the remaining activity at 10 µM [8, 17] was 95%, the remaining activity at 10 µM [9, 17] was 96% and the remaining activity at 10 µM [10, 17] was 86%. It also gave a remaining activity at 10 µM [11, 17] of 86%, a remaining activity at 10 µM [12, 17] of 129% and a remaining activity at 10 µM [13, 17] of 92%.
